Where no end group is shown, it is not given here.

Data set [1] concerns MCMV. It is filed as cell-based, Murine Cytomegalovirus. The method, then: (§1) Murine Cytomegalovirus (MCMV) RM4503 was cultured in vitro in MEF 10.1 cells. The virus stock was titered using plaque assay (described below) and stored at −80° C. Human Cytomegalovirus (HCMV) TB40/E was obtained from (46, 47) and cultures in vitro in HFF cells. The virus stock was titered using plaque assay and stored at −80° C. HSV-1 and HSV-2 were cultured in vitro in VERO cells. The virus stock was titered using plaque assay and stored at −80° C.
(§2) Peptides were screened for their ability to reduce viral infection using a plaque reduction assay. Cells were cultured in 12-well (VERO) or 24-well culture plates (MEF 10.1 and HFF). When the cells reached ˜80% confluence the media was removed and the cells washed once with PBS before addition of peptide. As a control, cells were incubated with PBS alone. After a 30 min of incubation with peptide in PBS, the virus was added and incubated for another 90 min (HSV and HCMV) or 60 min (MCMV). Following virus incubation the peptide/virus mixture was removed and replaced with 0.75% carboxy-methyl cellulose (Sigma Aldrich, St. Louis, Mo.)+complete media (CMC) or 0.5% agarose (Lonza, Rockland, Me.) in complete media. The plates were incubated at 37° C. in 5% CO2 for 4 days when plaques began to develop, following which they were stained with Coomassie stain (AMRESCO, Solon, Ohio). Plaques were counted manually and data analyzed using Prism 5.0 (GraphPad Software, La Jolla, Calif.). Data were expressed as % plaques relative to the average number of plaques in the PBS-treated wells.
In the initial screening assays all peptides were tested at a single concentration (500 μg/ml) using a plaque-reduction assay, in which mouse embryonic fibroblasts were incubated with the peptides for 30 min prior to the addition of virus.
In the infectivity assays described above the peptide and virus were co-incubated with the cells. Therefore to ensure the peptide was not directly inactivating the virus, MCMV was incubated with 100 μM (˜20× the IC50) peptide at 37° C. for 1 h, diluted to an ineffective peptide concentration (1 μM) and fibroblast infection rates measured.
To determine at which stage of the MCMV entry cycle the peptide interferes, four different peptide treatment protocols were tested, 1) 30 min. prior to infection (pre-adsorption) 2) simultaneously with virus (during adsorption) 3) after letting the virus adsorb to the cells at 4° C. for lhr (post adsorption) or 4) after allowing the virus to fuse with the cell membrane at 37° C. for lhr (post fusion) (FIG. 3(B)).

Data set [2] has as its system MCMV. The data set is described as follows: Interference of peptide mediated reduction by heparin (MCMV plaque reduction). The format is cell-based, Murine Cytomegalovirus. The conditions noted are these: peptide 100 μM pre-incubated with heparin 1 h at 37° C. before addition to cells. The procedure:
Peptide GGGY-p5+14 (SEQ ID NO: 25) (at 100 μM) was pre-incubated with heparin sodium salt (Acros Organics, NJ) at different concentrations for 1 h at 37° C. Following which the heparin/peptide mix was added to the cells and incubated for 30 min at 37° C. Following the incubation, the supernatant was aspirated and cells washed once with PBS to remove unbound/excess heparin or peptide. The cells were subsequently infected with ˜100 pfu/well of MCMV. To test whether heparin treatment of cells interferes with virus infection, MEF 10.1 cells in a 24 well dish were pre-incubated with different concentrations of heparin for 1 hour and washed as described above. Following the pre-incubation infection was initiated as mentioned above. Finally to test the effect of heparin treatment on the infectivity of virus, MCMV was incubated with different concentration of heparin for lhr before infecting cells. For all these treatments, the virus was removed lhr post infection and cells overlaid with CMC. Plates were incubated for 4 days before staining and counting the plaques. Plaque reduction assay was performed as mentioned above.

The test system of data set [3] is MCMV. The data set is described as follows: Enzymatic treatment of cells (heparinase / chondroitinase) followed by MCMV plaque reduction assay. The format is cell-based, Murine Cytomegalovirus. The method, then:
(§3) Heparinase I (cat. # H2519), Heparinase II (cat. # H6512), Heparinase III (cat. # H8891) and Chondroitinase ABC (cat. # C3667) were obtained from Sigma Aldrich (St. Louis, Mo.). MEF 10.1 cells in culture were treated with heparinase re-suspended in heparinase buffer (20 mM Tris-HCl, pH 7.5, 50 mM NaCl, 4 mM CaCl2, and 0.01% BSA) at a concentration of 1 U/ml or chondroitinase re-suspended in chondroitinase buffer (50 mM Tris, pH 8.0, 60 mM sodium acetate and 0.02% bovine serum albumin) at a concentration of 1 U/ml for 1 h. at 37° C. As a control, cells were treated with enzyme buffer alone. Following incubation the enzyme solution was removed and cells were washed once with PBS to remove excess enzyme. Subsequently the cells were treated with peptide or infected with virus. The data was collected and analyzed as described previously.
For orientation: In a plaque reduction assay, fewer plaques than in the control indicate reduced infectivity or spread.

The subject of data set [4] is MEF 10.1 cells. The data set is described as follows: Visualization of bound biotinylated peptide on fixed MEF cells (fluorescence). The format is binding, Mouse. Conditions: 1.6 μg/mL, streptavidin fluorescence. The method, then:
Coverslips with fixed MEF cells prepared, washed in PBS and blocked with 1% BSA/PBS for 5 min. Following a PBS wash the nuclei were stained by using Hoechst (Life Technologies Molecular Probes, Grand Island, N.Y.) 1:100 in H2O— for 30 min at 37° C. Tissues were then blocked using a casein block solution (Scytek) for 5 min, AVIDIN/Biotin blocks (VECTOR, Burlingame, Calif.) for 20 min each at room temperature (RT) followed by a 5 min PBS wash. Biotinylated GGGY-p5+14 (SEQ ID NO: 25) or p5G (control) at 1.6 μg/mL in PBS was added and the tissues incubated overnight at 4° C. Following a PBS wash Alexa Fluor 594-conjugated streptavidin (Molecular Probes) was added at a 1:200 dilution in PBS for lhr at RT. Cells were then permeabilized by addition of 0.2% Triton X-100 (Sigma) in PBS for 10 min at RT and washed with a solution of 1% BSA in PBS for 30 min. The cells were then stained with Alexa Fluor 488-conjugated phalloidin (Molecular Probes) 1:100 dilution of stock in 1% BSA/PBS, for 45 min. at RT to visualize cytoskeleton. Slides were cover-slipped using a fluorescent mounting medium (Dako, Carpinteria, Calif.) to minimize photobleaching.

For data set [5], the system named is MEF 10.1 cells. The data set is described as follows: Measuring amount of bound biotinylated peptide on MEF 10.1 cells (time resolved fluorescence). The format is binding, Mouse. The method, then:
as §3
MEF 10.1 Cells were grown in 24-well cell culture plates as described above. Each well was probed with 100 μL of biotinylated peptides at 1 μg/mL in cold DMEM/F12 with 0.1% BSA and incubated for one hour at 4° C. Following the incubation the cells were washed twice with ice cold PBS and fixed with 1.25% glutaraldehyde. Fixed samples were washed twice and stored in PBS for 24 hours. […] The plate was washed three times with PBS, enhancement solution added, and time resolved fluorescence measured on the Wallac Victor 3 (Perkin-Elmer).

A further data set has as its system HCMV. The data set is described as follows: Plaque reduction assay, HCMV infectivity in HFF cells. It is filed as cell-based, Human Cytomegalovirus. Conditions: 100 μM. The method, then: as §1
as §2, with “The plates were incubated at 37° C. in 5% CO2 for 4 days when plaques began to develop, following which they were stained with Coomassie stain (AMRESCO, Solon, Ohio).” left out

The test system of a further data set is HSV-2. The data set is described as follows: Plaque reduction assay, HSV-2 in VERO cells. The conditions noted are these: 100 μM. It is filed as cell-based, herpes simplex virus. The procedure: as §1
as §2, with “The plates were incubated at 37° C. in 5% CO2 for 4 days when plaques began to develop, following which they were stained with Coomassie stain (AMRESCO, Solon, Ohio).” left out

The conditions of data set [6]: mouse, in vivo; cited from earlier work.

For the sequence “GGGYSKAQKAQAKQAKQAQKAQKAQAKQAKQAQKAQKAQAKQAKQ [GGGY-p5+14]”, in the data set with MCMV [1], the IC50 (commonly the concentration needed to halve the response being measured) is 5.2 µM. Besides, the “reduction in infection (MCMV)” value with MCMV [1] (10 μM) is given as greater than 80%. For the same sequence, the “inhibition of MCMV infection” value with MCMV [1] (100 μM) is reported as “effectively inhibited”. The “inhibition of MCMV infection (plaque reduction)” value with MCMV [1] (500 μg/ml, mouse embryonic fibroblasts incubated with peptide 30 min prior to virus) is reported as greater than 90%. Also, the “direct neutralizing effect on the virus” value in the data set on MCMV [1] (MCMV incubated with 100 μM peptide at 37° C. for 1 h, diluted to 1 μM) is “did not have any direct neutralizing effect on the virus itself”. Further, the “plaque formation, peptide added after the adsorption or fusion phase of viral entry” value with MCMV [1] (post adsorption or post fusion) is “no significant reduction in plaque formation”. For the same sequence, in the data set with MCMV [1] (pre-adsorption or during adsorption), the “infection (plaque formation), peptide added before or in conjunction with virus addition” value was greater than 80%. Besides, the “concentrations giving significant reduction in infection” value in the data set on MCMV [1] (serial dilution of peptide, FIG. 1(B)) is greater than 5 µg/mL. Also, the “effect of pre-incubation of peptide with heparin on inhibition of MCMV infection” value in the data set with MCMV [2] is listed as “reduced its ability to inhibit MCMV infection in a dose-dependent manner”. Besides, in the data set on MCMV [3] (chondroitinase 1 U/ml), the “effect of chondroitinase treatment of cells on the activity of the peptide” value is given as “nor did it have any effect on the activity of the peptide”. Besides, in the data set with MCMV [3] (heparinase 1 U/ml plus peptide), the “reduction in MCMV infectivity, peptide added to heparinase treated cells” value is on record as roughly 80%. For the same sequence, the “binding to mouse fibroblasts in culture” value in the data set with MEF 10.1 cells [4] was “bound mouse fibroblasts”. Moreover, the “reduction in the amount of bound peptide” value is reported as roughly 11% in the data set with MEF 10.1 cells [5] (cells treated with chondroitinase) and roughly 40% with MEF 10.1 cells [5] (cells treated with heparinase). Further, the “reduction of infection (HCMV)” value in the data set with HCMV is reported as roughly 80%. Besides, in the data set on HSV-2, the “reduction of HSV 2 infection” value is roughly 40%. In addition, in data set [6], the “peptide binding to GAGs expressed in healthy organs or tissues” value is “no evidence of peptide binding to GAGs expressed in healthy organs or tissues”.
